US20250009931A1 (GEL4MED, INC., priority 2021, published 2025)
Square brackets hold non-standard residues; d marks the D form. Ends that are not written are not given here.

Assays:
[1] = cited from earlier work
[2] = Net charge and isoelectric point of peptide; format: physicochemical; details: pH 7
Description: The peptide may be purified. For example, the peptide may be lyophilized. […] Other peptides are within the scope of the disclosure.
Exemplary peptides having a charge of +5 to +9 include […](d)[…], […](d)[…], and […](d)[…]. In other embodiments, the purified peptide may be substantially neutral. […] Net charge may be selected by peptide design. Design of electrostatic charge in the peptide hydrogel may allow control of charge interaction with cell membrane and proteins.

Molecule | pKa [1] | net charge [2]
O=C(O)C(F)(F)F [trifluoroacetic acid] | about 0 | –
VEVSVSVEVPPTEVSVEVEV (VEVSVSVEV[dP]PTEVSVEVEV) | – | net negative charge
